This experiment relates to SARS-CoV2. The experiment is described as follows: PCR test (Ct value) in patients, three successive lozenges (Beispiel 2). It counts as in vivo, Patienten. Conditions: result in words; over time with successive administration of several lozenges, also versus placebo. The text has this: Darüber hinaus wird die antivirale Wirksamkeit einer erfindungsgemäß einsetzbaren Zusammensetzung in Form der in Beispiel 1 beschriebenen Octenidindihydrochlorid-Lutschtablette an weiteren Patienten untersucht. Die Patienten weisen im Hinblick auf SARS-CoV2 vor Verabreichung der Lutschtabletten einen positiven PCR-Test auf (in der nachfolgenden Tabelle 3 unter "Ct0" angegeben).
Die Patienten erhalten insgesamt jeweils drei Octenidindihydrochlorid-Lutschtabletten in definierter zeitlicher Abfolge. Die Lutschzeit beträgt für eine jeweilige Tablette 15 Minuten, wobei jeweils nach jeweils weiteren 15 Minuten ein PCR-Test durchgeführt wird. Der PCR-Test nach Verabreichung der ersten Octenidindihydrochlorid-Lutschtablette wird somit 30 Minuten nach erfolgter Verabreichung durchgeführt (in der nachfolgenden Tabelle 3 unter "Ct1" angeführt).
Die zweite Octenidindihydrochlorid-Lutschtablette wird 2,5 Stunden nach Verabreichung der ersten Lutschtablette verabreicht, wobei der diesbezügliche PCR-Test 3 Stunden nach Verabreichung der ersten Lutschtablette und 30 Minuten nach Verabreichung der zweiten Lutsch-tablette durchgeführt wird (in der nachfolgenden Tabelle 3 unter "Ct2" angeführt). […]

Each structure is given as a SMILES string.

As for `CCCCCCCCNc1cc[n+](CCCCCCCCCC[n+]2ccc(NCCCCCCCC)cc2)cc1.[Cl-].[Cl-]` [Octenidindihydrochlorid, 1,1'-(1,10-Decandiyl)bis[4-(octylamino)pyridinium]-dichlorid], the Ct-Wert result is listed as “deutliche und nachhaltige Zuname des jeweiligen Ct-Werts”.

The values are drawn from patent publication EP4615450B1 (priority 2023, dated 2024).
